Reference: patent US20100152434A1, “Protein Kinase-binding Nucleosides and Associated Methods” (priority 2007, published 2010)
Read-outs that look alike come from different tables or passages of the source.

Legend:
[1] = system: SK-MEL-2; test: cells; conditions: Homo sapiens
[2] = system: HCC-2998; conditions: HCC-2998
[3] = system: UACC-62
[4] = system: COLO 205; test: cells; conditions: Homo sapiens
[5] = system: LOX IMVI
[6] = system: NCI-H460
[7] = system: TK-10; test: cells; conditions: Homo sapiens
[8] = system: A549/ATCC; test: cells; conditions: Homo sapiens
[9] = system: U251; test: cells; conditions: Homo sapiens
[10] = system: A498; test: cells; conditions: Homo sapiens
[11] = system: EKVX; test: cells; conditions: Homo sapiens
[12] = system: UO-31
[13] = system: SNB-19
[14] = system: T-47D; test: cells; conditions: Homo sapiens, T47D
[15] = system: KM12
[16] = system: OVCAR-3; test: cells; conditions: Homo sapiens
[17] = system: MDA-MB-435; conditions: MDA-MB-435
[18] = system: A498
[19] = system: HOP-62; conditions: HOP-62
[20] = system: CCRF-CEM; test: cells; conditions: Homo sapiens
[21] = system: OVCAR-8
[22] = system: SF-539
[23] = system: BT-549; test: cells; conditions: Homo sapiens
[24] = system: IGROV1; test: cells; conditions: Homo sapiens
[25] = system: LOX IMVI; test: cells; conditions: Homo sapiens
[26] = system: NCI-H23

Compound `CNC(=O)NC[C@H]1O[C@@H](n2cnc3c(NC(=O)Nc4ccccc4)ncnc32)[C@H](O[Si](C)(C)C(C)(C)C)[C@@H]1CC(=O)N(C)OC` [Compound 13, 2′-O-(tert-Butyldimethylsilyl)-3′,5′-dideoxy-3′-[(N-methoxy-N-methylcarboxamido)methyl]-5′-[(N-methylcarbamoyl)amino]-N^6-(N-phenylcarbamoyl)adenosine] has a GI50 ([1]; SK-MEL-2) of 14.9 µM, a CC50 ([1]; SK-MEL-2, read-out: LC50) greater than 100 µM and a TGI [2] greater than 1.00E−4 Molar. For the same compound, the “Percent Growth” value ([2]; Log10 Concentration −4.0) was 33%, the “Percent Growth” value ([2]; Log10 Concentration −5.0) was 66% and the “Percent Growth” value ([2]; Log10 Concentration −6.0) was 100%. For the same compound, the “Percent Growth” value ([2]; Log10 Concentration −7.0) was 97%, the “Percent Growth” value ([2]; Log10 Concentration −8.0) was 102% and the TGI [3] was greater than 1.00E−4 Molar. The “Percent Growth” value ([3]; Log10 Concentration −4.0) was 39%, the “Percent Growth” value ([3]; Log10 Concentration −5.0) was 69% and the “Percent Growth” value ([3]; Log10 Concentration −6.0) was 96%. For the same compound, the “Percent Growth” value ([3]; Log10 Concentration −7.0) was 107%, the “Percent Growth” value ([3]; Log10 Concentration −8.0) was 102% and the GI50 ([4]; COLO 205) was 12.3 µM. The CC50 ([4]; COLO 205, read-out: LC50) was greater than 100 µM, the TGI [5] was greater than 1.00E−4 Molar and the “Percent Growth” value ([5]; Log10 Concentration −4.0) was 35%. The “Percent Growth” value ([5]; Log10 Concentration −5.0) was 43%, the “Percent Growth” value ([5]; Log10 Concentration −6.0) was 94% and the “Percent Growth” value ([5]; Log10 Concentration −7.0) was 96%. The “Percent Growth” value ([5]; Log10 Concentration −8.0) was 97%, the TGI [6] was greater than 1.00E−4 Molar and the “Percent Growth” value ([6]; Log10 Concentration −4.0) was 25%. For the same compound, the “Percent Growth” value ([6]; Log10 Concentration −5.0) was 44%, the “Percent Growth” value ([6]; Log10 Concentration −6.0) was 90% and the “Percent Growth” value ([6]; Log10 Concentration −7.0) was 93%. For the same compound, the “Percent Growth” value ([6]; Log10 Concentration −8.0) was 96%, the GI50 ([7]; TK-10) was 20.5 µM and the CC50 ([7]; TK-10, read-out: LC50) was greater than 100 µM. The GI50 ([8]; A549) was 9.35 µM, the CC50 ([8]; A549, read-out: LC50) was greater than 100 µM and the GI50 ([9]; U-251) was 5.66 µM. For the same compound, the CC50 ([9]; U-251, read-out: LC50) was greater than 100 µM, the GI50 ([10]; A498) was 3.87 µM and the CC50 ([10]; A498, read-out: LC50) was greater than 100 µM. It also gave a GI50 [11] of 26.4 µM, a CC50 ([11]; read-out: LC50) greater than 100 µM and a TGI [12] greater than 1.00E−4 Molar. The “Percent Growth” value ([12]; Log10 Concentration −4.0) was 32%, the “Percent Growth” value ([12]; Log10 Concentration −5.0) was 46% and the “Percent Growth” value ([12]; Log10 Concentration −6.0) was 82%. The “Percent Growth” value ([12]; Log10 Concentration −7.0) was 89%, the “Percent Growth” value ([12]; Log10 Concentration −8.0) was 89% and the TGI [13] was greater than 1.00E−4 Molar. The “Percent Growth” value ([13]; Log10 Concentration −4.0) was 51%, the “Percent Growth” value ([13]; Log10 Concentration −5.0) was 61% and the “Percent Growth” value ([13]; Log10 Concentration −6.0) was 83%. The “Percent Growth” value ([13]; Log10 Concentration −7.0) was 93%, the “Percent Growth” value ([13]; Log10 Concentration −8.0) was 94% and the GI50 [14] was 13.9 µM. For the same compound, the CC50 ([14]; read-out: LC50) was greater than 100 µM, the TGI [15] was greater than 1.00E−4 Molar and the “Percent Growth” value ([15]; Log10 Concentration −4.0) was 30%. The “Percent Growth” value ([15]; Log10 Concentration −5.0) was 62%, the “Percent Growth” value ([15]; Log10 Concentration −6.0) was 106% and the “Percent Growth” value ([15]; Log10 Concentration −7.0) was 108%. For the same compound, the “Percent Growth” value ([15]; Log10 Concentration −8.0) was 101%, the GI50 ([16]; OVCAR-3) was 7.11 µM and the CC50 ([16]; OVCAR-3, read-out: LC50) was greater than 100 µM. The TGI [17] was greater than 1.00E−4 Molar, the “Percent Growth” value ([17]; Log10 Concentration −4.0) was 36% and the “Percent Growth” value ([17]; Log10 Concentration −5.0) was 51%. The “Percent Growth” value ([17]; Log10 Concentration −6.0) was 98%, the “Percent Growth” value ([17]; Log10 Concentration −7.0) was 97% and the “Percent Growth” value ([17]; Log10 Concentration −8.0) was 100%. For the same compound, the TGI [18] was 4.03E−5 Molar, the “Percent Growth” value ([18]; Log10 Concentration −4.0) was −16% and the “Percent Growth” value ([18]; Log10 Concentration −5.0) was 24%. For the same compound, the “Percent Growth” value ([18]; Log10 Concentration −6.0) was 87%, the “Percent Growth” value ([18]; Log10 Concentration −7.0) was 96% and the “Percent Growth” value ([18]; Log10 Concentration −8.0) was 90%. For the same compound, the TGI [19] was greater than 1.00E−4 Molar, the “Percent Growth” value ([19]; Log10 Concentration −4.0) was 28% and the “Percent Growth” value ([19]; Log10 Concentration −5.0) was 64%. For the same compound, the “Percent Growth” value ([19]; Log10 Concentration −6.0) was 86%, the “Percent Growth” value ([19]; Log10 Concentration −7.0) was 88% and the “Percent Growth” value ([19]; Log10 Concentration −8.0) was 92%. The GI50 [20] was 6.37 µM, the CC50 ([20]; read-out: LC50) was greater than 100 µM and the TGI [21] was greater than 1.00E−4 Molar. For the same compound, the “Percent Growth” value ([21]; Log10 Concentration −4.0) was 22%, the “Percent Growth” value ([21]; Log10 Concentration −5.0) was 48% and the “Percent Growth” value ([21]; Log10 Concentration −6.0) was 103%. For the same compound, the “Percent Growth” value ([21]; Log10 Concentration −7.0) was 106%, the “Percent Growth” value ([21]; Log10 Concentration −8.0) was 107% and the TGI [22] was greater than 1.00E−4 Molar. The “Percent Growth” value ([22]; Log10 Concentration −4.0) was 23%, the “Percent Growth” value ([22]; Log10 Concentration −5.0) was 65% and the “Percent Growth” value ([22]; Log10 Concentration −6.0) was 89%. The “Percent Growth” value ([22]; Log10 Concentration −7.0) was 94%, the “Percent Growth” value ([22]; Log10 Concentration −8.0) was 96% and the GI50 ([23]; BT-549) was 29 µM. The CC50 ([23]; BT-549, read-out: LC50) was greater than 100 µM, the GI50 ([24]; IGROV-1) was 3.72 µM and the CC50 ([24]; IGROV-1, read-out: LC50) was greater than 100 µM. The GI50 [25] was 7.3 µM, the CC50 ([25]; read-out: LC50) was greater than 100 µM and the TGI [26] was greater than 1.00E−4 Molar. For the same compound, the “Percent Growth” value ([26]; Log10 Concentration −4.0) was 43%, the “Percent Growth” value ([26]; Log10 Concentration −5.0) was 71% and the “Percent Growth” value ([26]; Log10 Concentration −6.0) was 99%. For the same compound, the “Percent Growth” value ([26]; Log10 Concentration −7.0) was 103% and the “Percent Growth” value ([26]; Log10 Concentration −8.0) was 106%.
